# Experimental data published in US4365063A, “Antihypertensive agents” (American Home Products Corporation, priority 1981, dated 1982).
# Key:
# rabbit aortic strips = assay: Ca+2 antagonism: relaxation of potassium-contracted rabbit aortic strips; format: cell-based; settings: Oryctolagus cuniculus, strips contracted with 100 millimoles potassium ion, read-out: percent relaxation (P.R.); for inhibition at 10 µM: 10^-5 M bath concentration; for inhibition at 1 µM: 10^-6 M bath concentration
# Method: After a stable active tension has developed in the strip, as measured by Statham UC-2 force transducers and recorded on an eight channel Beckman Dynograph Polygraphic Recorder, an amount of the antagonist was added to the organ bath to make a 10^-5 molar concentration of antagonist. The depressant effect, expressed as percent relaxation, was taken from the mean of at least two experiments. […] A Ca^+2 antagonist producing a 20 percent relaxation of aortic tissue in this test procedure at a 10^-5 molar bath concentration of the antagonist, generally produced a significant reduction in blood pressure when a sufficient amount is given to the spontaneously hypertensive rat.
# (§1) The following examples illustrate the preparation of a representative number of compounds of this invention. After each example, the Ca^+2 antagonist activity of the compound is presented in terms of percent relaxation (P.R.) at the stated concentration. Similarly, the antihypertensive activity is reported in terms of millimeters mercury (mmHg) blood pressure (B.P.) reduction at the stated time post oral dosing with the reported amount of compound.
# [1] = test system: spontaneously hypertensive rats; assay: Systolic blood pressure lowering in spontaneously hypertensive rats; format: in vivo, rat
# Method: The in vivo blood pressure lowering ability of the compounds of this invention was established by measuring the systolic pressure of spontaneously hypertensive rats with a Decker Caudal Plethysmograph or similar sensor device. The compound being tested is administered to groups of four rats and their blood pressure is read prior to compound administration and at 1.5 and 4 hours after compound administration. Depending upon the behavior of the compound being tested, the schedule of blood pressure readings and route of administration is modified. Initially the compounds are administered orally but where compound solubility is a factor, the compounds may be administered parenterally (i.e. i.p., i.m., s.c., i.v., etc.) as desired. The compounds of this invention were initially administered orally at a standard testing dose of 50 mg/kg., and where appropriate, smaller doses were administered to obtain a potency profile.
# as §1
compound,measurement,setting,value
"COC(=O)C1=C(C)NC2=C(C(=O)CN(C)C2)C1c1c(F)c(F)c(F)c(F)c1F (centres unmarked) [Example 1, 1,4,5,6,7,8-Hexahydro-2,7-dimethyl-4-[2,3,4,5,6-pentafluorophenyl]-5-oxo-1,7-naphthyridine-3-carboxylic Acid Methyl Ester]",inhibition at 10 µM,rabbit aortic strips,22.9%
same,blood pressure (B.P.) reduction,"[1]; 5 mg/kg oral, at 1.5 hours",-21 mmHg
same,blood pressure (B.P.) reduction,"[1]; 5 mg/kg oral, at 4 hours",-10 mmHg
same,blood pressure (B.P.) reduction,"[1]; 10 mg/kg oral, at 1.5 hours",-63 mmHg
same,blood pressure (B.P.) reduction,"[1]; 10 mg/kg oral, at 4 hours",-31 mmHg
same,blood pressure (B.P.) reduction,"[1]; 25 mg/kg oral, at 1.5 hours",-71 mmHg
same,blood pressure (B.P.) reduction,"[1]; 25 mg/kg oral, at 4 hours",-49 mmHg
same,blood pressure (B.P.) reduction,"[1]; 50 mg/kg oral, at 1.5 hours",-95 mmHg
same,blood pressure (B.P.) reduction,"[1]; 50 mg/kg oral, at 4 hours",-89 mmHg
"COC(=O)C1=C(C)NC2=C(C(=O)CNC2)C1c1c(F)c(F)c(F)c(F)c1F (centres unmarked) [Example 3, 1,4,5,6,7,8-Hexahydro-2-methyl-5-oxo-4-(2,3,4,5,6-pentafluorophenyl)-1,7-naphthyridine-3-carboxylic Acid Methyl Ester]",inhibition at 10 µM,rabbit aortic strips,78.7%
same,inhibition at 1 µM,rabbit aortic strips,65.2%
same,blood pressure (B.P.) reduction,"[1]; 2.5 mg/kg oral, at 1.5 hours",-34 mmHg
same,blood pressure (B.P.) reduction,"[1]; 2.5 mg/kg oral, at 4 hours",-30 mmHg
same,blood pressure (B.P.) reduction,"[1]; 5 mg/kg oral, at 1.5 hours",-48 mmHg
same,blood pressure (B.P.) reduction,"[1]; 5 mg/kg oral, at 4 hours",-36 mmHg
same,blood pressure (B.P.) reduction,"[1]; 10 mg/kg oral, at 1.5 hours",-79 mmHg
same,blood pressure (B.P.) reduction,"[1]; 10 mg/kg oral, at 4 hours",-24 mmHg
same,blood pressure (B.P.) reduction,"[1]; 25 mg/kg oral, at 1.5 hours",-76 mmHg
same,blood pressure (B.P.) reduction,"[1]; 50 mg/kg oral, at 1.5 hours",-64 mmHg
same,blood pressure (B.P.) reduction,"[1]; 50 mg/kg oral, at 4 hours",-88 mmHg
"COC(=O)C1=C(C)NC2=C(C(=O)CN(Cc3ccccc3)C2)C1c1c(F)c(F)c(F)c(F)c1F (centres unmarked) [Example 2, 1,4,5,6,7,8-Hexahydro-2-methyl-5-oxo-4-(2,3,4,5,6-pentafluorophenyl)-7-(phenylmethyl)-1,7-naphthyridine-3-carboxylic Acid Methyl Ester]",inhibition at 1 µM,rabbit aortic strips,56%
same,blood pressure (B.P.) reduction,"[1]; 50 mg/kg oral, at 1.5 hours",-20 mmHg
same,blood pressure (B.P.) reduction,"[1]; 50 mg/kg oral, at 4 hours",-23 mmHg
